One series addresses CYP2C9 (Homo sapiens, UniProt P11712). Description: Kinetic properties of fluorogenic substrates with CYP 2C9. The class given is biochemical. To be noted: for v (1.25 uM): turnover rate at 1.25 uM substrate; for v (1.25 uM) / v (10 uM) / Km / kcat: — = too low to quantify; for v (10 uM): turnover rate at 10 uM substrate.
In another series the target is CYP2D6 (Homo sapiens, UniProt P10635). Description: Kinetic properties of fluorogenic substrates with CYP 2D6. The class given is biochemical. To be noted: for v (1.25 uM): turnover rate at 1.25 uM substrate; for v (10 uM): turnover rate at 10 uM substrate. The source says:
(§1) (respectively, MFC and MR).

The next series addresses T1, CYP 2B6 (Homo sapiens, UniProt P20813).
T1 sequence (P20813 1-491): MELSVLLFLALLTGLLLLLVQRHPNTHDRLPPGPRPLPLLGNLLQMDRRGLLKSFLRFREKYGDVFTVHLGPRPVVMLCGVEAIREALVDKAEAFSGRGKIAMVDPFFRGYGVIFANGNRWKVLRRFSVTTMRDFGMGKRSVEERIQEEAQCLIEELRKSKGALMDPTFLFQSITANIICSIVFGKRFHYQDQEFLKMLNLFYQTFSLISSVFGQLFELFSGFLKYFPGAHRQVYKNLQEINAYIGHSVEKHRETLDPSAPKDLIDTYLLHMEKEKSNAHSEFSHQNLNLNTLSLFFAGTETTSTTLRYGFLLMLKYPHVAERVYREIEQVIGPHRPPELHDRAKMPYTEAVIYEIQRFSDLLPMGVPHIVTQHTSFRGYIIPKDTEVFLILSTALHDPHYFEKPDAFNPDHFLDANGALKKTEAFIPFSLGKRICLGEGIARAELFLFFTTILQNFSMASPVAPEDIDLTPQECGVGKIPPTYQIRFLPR
In words: Kinetic properties of fluorogenic substrates with CYP 2B6. The class given is biochemical. The settings on record: for v (1.25 uM): turnover rate at 1.25 uM substrate; for v (1.25 uM) / v (10 uM) / Km / kcat: — = too low to quantify; for v (10 uM): turnover rate at 10 uM substrate.

A further series has as its target T2, CYP 1A2 (Homo sapiens, UniProt P05177).
T2 sequence (P05177 1-516): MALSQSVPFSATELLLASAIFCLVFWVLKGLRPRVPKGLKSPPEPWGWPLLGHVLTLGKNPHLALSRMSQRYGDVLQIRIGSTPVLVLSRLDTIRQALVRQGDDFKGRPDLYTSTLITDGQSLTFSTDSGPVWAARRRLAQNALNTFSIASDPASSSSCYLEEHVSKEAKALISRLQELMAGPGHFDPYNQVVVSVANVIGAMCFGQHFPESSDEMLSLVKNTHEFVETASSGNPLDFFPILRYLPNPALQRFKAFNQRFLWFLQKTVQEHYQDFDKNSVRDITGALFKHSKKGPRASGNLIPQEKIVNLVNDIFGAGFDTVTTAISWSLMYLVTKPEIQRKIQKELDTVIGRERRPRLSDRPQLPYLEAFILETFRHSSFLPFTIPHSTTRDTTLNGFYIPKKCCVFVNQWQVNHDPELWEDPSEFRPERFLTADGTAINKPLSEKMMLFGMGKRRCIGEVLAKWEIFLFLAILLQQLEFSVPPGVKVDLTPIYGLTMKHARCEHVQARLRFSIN
In words: Kinetic properties of fluorogenic substrates with CYP 1A2. The class given is biochemical.

The target in another series is CYP2C19 (Homo sapiens, UniProt P33261). Description: Kinetic properties of fluorogenic substrates with CYP 2C19. The class given is biochemical. The settings on record: for v (1.25 uM): turnover rate at 1.25 uM substrate; for v (1.25 uM) / v (10 uM): — = too low to quantify; for v (10 uM): turnover rate at 10 uM substrate.
The target in series [1] is T3, CYP3A4 (Homo sapiens, UniProt P08684). Description: Kinetic properties of fluorogenic substrates with CYP 3A4. The class given is biochemical. To be noted: for v (1.25 uM): turnover rate at 1.25 uM substrate; for v (1.25 uM) / v (10 uM): — = too low to quantify; for v (10 uM): turnover rate at 10 uM substrate.
Excerpt: For further understanding these terms in the context of this invention, attention is directed to FIG. 4 and the analysis of FIG. 4.
as §1

The target of series [2] is T3, CYP3A4. Description: in vitro. To be noted: pH 8, % inhibition; for inhibition at 20 min, 10 µM: Condition A; for inhibition at 40 min, 10 µM: Condition B.

Values joined by “and” are separate entries in the source; they are usually repeats but may differ in a detail not shown here. Identical values can stand only once.

T3 sequence (P08684 whole entry): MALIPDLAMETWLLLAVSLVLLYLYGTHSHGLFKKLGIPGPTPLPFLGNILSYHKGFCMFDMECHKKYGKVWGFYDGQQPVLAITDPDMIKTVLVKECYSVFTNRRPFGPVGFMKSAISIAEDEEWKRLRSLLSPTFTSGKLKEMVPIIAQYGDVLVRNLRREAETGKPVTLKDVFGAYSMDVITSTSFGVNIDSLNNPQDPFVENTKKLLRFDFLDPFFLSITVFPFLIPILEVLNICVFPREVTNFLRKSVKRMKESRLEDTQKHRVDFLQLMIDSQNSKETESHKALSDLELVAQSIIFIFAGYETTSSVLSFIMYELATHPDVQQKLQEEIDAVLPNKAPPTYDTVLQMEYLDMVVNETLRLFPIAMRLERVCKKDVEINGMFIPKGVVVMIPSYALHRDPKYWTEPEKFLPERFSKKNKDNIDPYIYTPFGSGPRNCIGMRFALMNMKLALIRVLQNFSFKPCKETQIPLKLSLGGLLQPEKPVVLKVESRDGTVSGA
CYP2C9, sequence (P11712 whole entry): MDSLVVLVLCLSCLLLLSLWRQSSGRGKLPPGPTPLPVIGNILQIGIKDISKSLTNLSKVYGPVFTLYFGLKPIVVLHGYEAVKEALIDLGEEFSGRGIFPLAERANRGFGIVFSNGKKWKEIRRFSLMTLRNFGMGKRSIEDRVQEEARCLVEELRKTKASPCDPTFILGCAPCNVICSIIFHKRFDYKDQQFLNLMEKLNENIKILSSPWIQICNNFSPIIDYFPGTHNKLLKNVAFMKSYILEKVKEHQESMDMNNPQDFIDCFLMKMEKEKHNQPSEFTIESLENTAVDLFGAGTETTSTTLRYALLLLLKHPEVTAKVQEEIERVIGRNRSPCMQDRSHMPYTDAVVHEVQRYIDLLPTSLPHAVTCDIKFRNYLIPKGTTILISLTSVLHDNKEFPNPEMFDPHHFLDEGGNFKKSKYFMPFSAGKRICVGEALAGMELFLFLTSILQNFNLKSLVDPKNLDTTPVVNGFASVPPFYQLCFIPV
CYP2C19, sequence (P33261 whole entry): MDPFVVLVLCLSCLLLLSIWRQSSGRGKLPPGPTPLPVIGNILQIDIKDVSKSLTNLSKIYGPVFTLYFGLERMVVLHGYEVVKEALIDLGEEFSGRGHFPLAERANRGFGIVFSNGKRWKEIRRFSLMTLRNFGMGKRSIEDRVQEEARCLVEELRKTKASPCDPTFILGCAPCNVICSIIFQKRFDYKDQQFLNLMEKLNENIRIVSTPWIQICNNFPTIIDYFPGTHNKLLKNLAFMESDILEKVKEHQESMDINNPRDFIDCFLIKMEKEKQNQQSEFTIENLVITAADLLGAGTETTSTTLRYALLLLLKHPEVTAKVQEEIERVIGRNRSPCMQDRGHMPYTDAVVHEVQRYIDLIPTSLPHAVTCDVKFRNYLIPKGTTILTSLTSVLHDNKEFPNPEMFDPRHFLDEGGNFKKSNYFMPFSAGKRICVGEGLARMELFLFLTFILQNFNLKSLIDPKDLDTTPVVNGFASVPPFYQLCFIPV
CYP2D6, sequence (P10635 whole entry): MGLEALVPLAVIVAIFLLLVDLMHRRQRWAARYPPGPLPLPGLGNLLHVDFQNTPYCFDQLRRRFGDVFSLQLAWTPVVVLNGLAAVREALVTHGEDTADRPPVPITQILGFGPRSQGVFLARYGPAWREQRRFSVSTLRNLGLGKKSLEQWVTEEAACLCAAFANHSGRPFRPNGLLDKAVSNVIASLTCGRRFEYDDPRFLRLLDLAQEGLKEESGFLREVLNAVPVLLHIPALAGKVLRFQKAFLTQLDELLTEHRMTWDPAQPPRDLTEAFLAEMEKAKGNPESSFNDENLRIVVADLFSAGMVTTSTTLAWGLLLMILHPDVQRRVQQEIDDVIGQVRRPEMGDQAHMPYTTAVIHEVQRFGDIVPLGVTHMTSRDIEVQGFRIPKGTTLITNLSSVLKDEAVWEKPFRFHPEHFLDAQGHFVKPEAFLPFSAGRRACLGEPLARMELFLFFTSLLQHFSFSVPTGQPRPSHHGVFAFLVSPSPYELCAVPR

As for “7-Methoxy-4-trifluoromethylcoumarin [MFC, reference compound]”, on CYP2C9, the type of kinetics result is on record as “Michaelis-Menten”, the “v (1.25 uM)” value stood at 0.01 min⁻¹, the “v (10 uM)” value worked out at 0.03 min⁻¹ and the Km turned out to be 103 µM. In addition, the catalytic constant (kcat) on CYP2C9 is 0.0067 s⁻¹. On CYP2D6, the type of kinetics result was “Michaelis-Menten”. On CYP2D6 (— = too low to quantify), the “v (1.25 uM)” value stood at 0.03 min⁻¹, the “v (10 uM)” value is 0.10 min⁻¹, the Km was 10 µM and the kcat is 0.005 s⁻¹. On CYP 2B6, the type of kinetics result is reported as “Michaelis-Menten”, the “v (1.25 uM)” value was determined as 1.63 min⁻¹, the “v (10 uM)” value came to 2.53 min⁻¹ and the Michaelis-Menten constant (Km) was found to be 1.4 µM. For the same compound, the catalytic constant (kcat) on CYP 2B6 was 0.0483 s⁻¹.
As for `CCOc1ccc2cc(C#N)c(=O)oc2c1` [3CEC, 3-Cyano-7-ethoxycoumarin, reference compound], the type of kinetics entry on CYP 1A2 and on CYP2C19 was “Michaelis-Menten” each time. In addition, the “v (1.25 uM)” value at CYP 1A2 (turnover rate at 1.25 uM substrate) is 1.73 min⁻¹; at CYP2C19, 0.05 min⁻¹. The “v (10 uM)” value at CYP 1A2 (turnover rate at 10 uM substrate) worked out at 12.55 min⁻¹; at CYP2C19 it was 0.34 min⁻¹.
For `COc1ccc2cc(C#N)c(=O)oc2c1` [3CMC, 3-cyano-7-methoxycoumarin, reference compound], at CYP2C9, the type of kinetics entry is given as “linear”, the “v (1.25 uM)” value was determined as 0.00 min⁻¹ and the “v (10 uM)” value was found to be 0.04 min⁻¹. For the same compound, at CYP2C19, the type of kinetics entry is on record as “linear”, the “v (1.25 uM)” value is 0.01 min⁻¹ and the “v (10 uM)” value was 0.07 min⁻¹.
Take `N#Cc1cc2ccc(OCc3ccccc3)cc2oc1=O` [BCC, 7-Benzyloxy-3-cyanocoumarin, reference compound]: at CYP2C9, the “v (1.25 uM)” value worked out at 0.00 min⁻¹ and the “v (10 uM)” value turned out to be 0.00 min⁻¹. Besides, at CYP2C19, the type of kinetics entry is reported as “Michaelis-Menten”, the “v (1.25 uM)” value was found to be 0.02 min⁻¹ and the “v (10 uM)” value was 0.06 min⁻¹. In addition, at CYP 2B6, the type of kinetics result was “Michaelis-Menten”, the “v (1.25 uM)” value came out at 0.04 min⁻¹, the “v (10 uM)” value came out at 0.07 min⁻¹ and the catalytic constant (kcat) was 0.0017 s⁻¹. Further, the Michaelis-Menten constant (Km) on CYP 2B6 (human, CYP 2B6 isozyme) is 1.3 µM.
On to `O=c1cc(C(F)(F)F)c2ccc(OCc3ccccc3)cc2o1` [BFC, 7-Benzyloxy-4-trifluoromethylcoumarin, reference compound], for which, at CYP3A4 [1], the type of kinetics result is reported as “linear”, the “v (1.25 uM)” value stood at 0.04 min⁻¹ and the “v (10 uM)” value was 0.81 min⁻¹.
Regarding `CC1(C)C2=C(Cl)C(=O)C(Cl)=CC2=Nc2ccc(OCOCc3ccccc3)cc21` [BOM-DDAO], on CYP3A4 [1], the “v (1.25 uM)” value was found to be 0.4402 min⁻¹ and the “v (10 uM)” value came out at 4.2041 min⁻¹.
As for `O=C(OCc1ccccc1)c1c2oc3cc(OCc4ccccc4)ccc3nc-2ccc1=O` [BRCBE], on CYP3A4 [1], the “v (1.25 uM)” value was 0.1992 min⁻¹ and the “v (10 uM)” value was found to be 0.6241 min⁻¹.
Take `CCN(CC)Cc1cc(=O)oc2cc(OC)ccc12` [DMMC]: on CYP2C19, the “v (1.25 uM)” value turned out to be 0.03 min⁻¹ and the “v (10 uM)” value came out at 0.23 min⁻¹.
Take `O=C1NC(=O)C(c2ccccc2)(c2ccccc2)N1` [Diphenylhydantoin]: the inhibition at 20 min, 10 µM was -11% on CYP3A4 [2] (substrate BOMCC), -27% on CYP3A4 [2] (substrate BOMR) and 21% against CYP3A4 [2] (substrate DBOMF). For the same compound, the values for the inhibition at 40 min, 10 µM on CYP3A4 [2] (substrate BOMCC), against CYP3A4 [2] (substrate BOMR) and at CYP3A4 [2] (substrate DBOMF) were 21%, 24% and 5%, respectively.
Take `CCOCOc1ccc2nc3ccc(=O)cc-3oc2c1` [EOMR]: at CYP3A4 [1], the type of kinetics entry is on record as “Michaelis-Menten”, the “v (1.25 uM)” value came out at 0.03 min⁻¹ and the “v (10 uM)” value is 0.10 min⁻¹.
As for `CC(C)Oc1ccc2cc(C#N)c(=O)oc2c1` [IPCC], on CYP2C19, the “v (1.25 uM)” value is 0.027 min⁻¹ and the “v (10 uM)” value stood at 0.232 min⁻¹. Moreover, on CYP2D6 (— = too low to quantify), the “v (1.25 uM)” value stood at 0.0076 min⁻¹ and the “v (10 uM)” value was 0.0378 min⁻¹.
For the compound `NNC(=O)c1ccncc1` [Isoniazid], the inhibition at 20 min, 10 µM at CYP3A4 [2] (substrate BOMCC) was 59%; on CYP3A4 [2] (substrate BOMR) it was -8%; against CYP3A4 [2] (substrate DBOMF) it was -9%. In addition, the inhibition at 40 min, 10 µM is 48% at CYP3A4 [2] (substrate BOMCC), 30% against CYP3A4 [2] (substrate BOMR) and 3% against CYP3A4 [2] (substrate DBOMF).
As for `COc1ccc(COc2ccc3nc4ccc(=O)cc-4oc3c2)cc1` [MOBR, Paramethoxybenzylresorufin], the type of kinetics entry on CYP2C9 is given as “Michaelis-Menten”; on CYP2C19, “not MMK”; on CYP2D6 it was “Michaelis-Menten”; on CYP 2B6 it was “Michaelis-Menten”. Also, the “v (1.25 uM)” value at CYP2C9 is 0.02 min⁻¹; on CYP2C19 it was 1.26 min⁻¹; at CYP2D6 (— = too low to quantify), 0.0185 min⁻¹ and 0.02 min⁻¹; at CYP 2B6 it was 0.08 min⁻¹. For the same compound, the “v (10 uM)” value at CYP2C9 was 0.02 min⁻¹; at CYP2C19, 0.69 min⁻¹; at CYP2D6 (— = too low to quantify), 0.0409 min⁻¹ and 0.04 min⁻¹; on CYP 2B6, 0.10 min⁻¹. Further, the Km on CYP 2B6 (human, CYP 2B6 isozyme) amounted to 0.01 µM. On CYP 2B6, the kcat amounted to 0.0067 s⁻¹.
Consider `COCOc1ccc2cc(C#N)c(=O)oc2c1` [MOMCC], for which, at CYP2C9, the type of kinetics result is “Michaelis-Menten”, the “v (1.25 uM)” value was 0.01 min⁻¹ and the “v (10 uM)” value worked out at 0.07 min⁻¹. For the same compound, at CYP2C19, the type of kinetics entry is “Michaelis-Menten”, the “v (1.25 uM)” value was 0.14 min⁻¹ and the “v (10 uM)” value turned out to be 0.38 min⁻¹.
Take `COCOc1ccc2c(C(F)(F)F)cc(=O)oc2c1` [MOMFC, 7-Methyloxymethyloxy-4-trifluorocoumarin]: on CYP2C9, the type of kinetics entry is “Michaelis-Menten”, the “v (1.25 uM)” value was determined as 0.00 min⁻¹, the “v (10 uM)” value was determined as 0.07 min⁻¹ and the Km amounted to 14.9 µM. Moreover, the kcat at CYP2C9 worked out at 0.0017 s⁻¹. At CYP 2B6, the type of kinetics result is listed as “notMichaelis-Menten”, the “v (1.25 uM)” value turned out to be 0.54 min⁻¹ and the “v (10 uM)” value was found to be 0.71 min⁻¹.
For the compound `COCOc1ccc2nc3ccc(=O)cc-3oc2c1` [MOMR], the “v (1.25 uM)” value on CYP3A4 [1] was 0.0083 min⁻¹; on CYP2C19, 0.06 min⁻¹; at CYP2D6 (— = too low to quantify), 0.03396 min⁻¹. The “v (10 uM)” value on CYP3A4 [1] was determined as 0.0338 min⁻¹; on CYP2C19 it was 0.062 min⁻¹; at CYP2D6 (— = too low to quantify), 0.2146 min⁻¹.
For `O=C1CN(/N=C/c2ccc([N+](=O)[O-])o2)C(=O)N1` [Nitrofurantoin], the inhibition at 20 min, 10 µM against CYP3A4 [2] (substrate BOMCC) is 44%; on CYP3A4 [2] (substrate BOMR), -19%; on CYP3A4 [2] (substrate DBOMF), -9%. For the same compound, the inhibition at 40 min, 10 µM at CYP3A4 [2] (substrate BOMCC) is 33%; against CYP3A4 [2] (substrate BOMR), 27%; at CYP3A4 [2] (substrate DBOMF), -3%.
On to `CCCCCCCCOCOc1ccc2cc(C#N)c(=O)oc2c1` [OOMCC], for which the results for the “v (1.25 uM)” value at CYP3A4 [1] and on CYP2C19 were 0.2274 min⁻¹ and 0.179 min⁻¹, respectively. Also, the “v (10 uM)” value is 0.961 min⁻¹ on CYP3A4 [1] and 1.043 min⁻¹ at CYP2C19.
For `C=CCOc1ccccc1OCC(O)CNC(C)C` (stereo not shown) [Oxprenolol], the inhibition at 20 min, 10 µM against CYP3A4 [2] (substrate BOMCC) is 7%; against CYP3A4 [2] (substrate BOMR), -5%; on CYP3A4 [2] (substrate DBOMF), 1%. In addition, the figures for the inhibition at 40 min, 10 µM on CYP3A4 [2] (substrate BOMCC), at CYP3A4 [2] (substrate BOMR) and on CYP3A4 [2] (substrate DBOMF) were 21%, 13% and 3%, respectively.

The record behind these values is patent US7132252B2, “Methods for detecting the interaction of compounds with cytochrome P450 using optical molecular sensors” (Invitrogen Corporation, priority 1998, dated 2006).
